# Assay results reported in patent US9023789B2, “Amylin analogs and pharmaceutical compositions thereof” (Novo Nordisk A/S, priority 2012, dated 2015).
# Read-outs that look alike come from different tables or passages of the source. Numbered stars: 1 amine (or outer) side, 2 acyl side, 3 side chain; on linkers, the order of the positions; unused ones are H or OH. Bridge positions count the residues as written; N and C are the ends. Peptide text beside a SMILES is read from it. * marks the point of attachment. C20 diacid = O=C(O)CCCCCCCCCCCCCCCCCCC(=O)*; γGlu = O=C(O)[C@H](CCC(=O)[*:2])N[*:1]
# Experiments:
# [1] = ASSAY (IV) determination of solubility; assay type: physicochemical
# Procedure, shortened: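 Polypeptide in water at […] mixed 1:1 with 100 mM buffers of pH 3.0-8.0 (glycylglycine pH 3-5, bistrispropane pH 6-8). Held 18 h at room temperature, then centrifuged; concentration remaining in solution measured by UPLC.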
# rat calcitonin receptor = target: T1, rat calcitonin receptor (Rattus norvegicus, UniProt P32214); test: ASSAY (VIII) binding to the rat calcitonin receptor; details: Table 7, read-out: rCTR bind IC50
# T1 construct: expressed in transfected cells; host or cells: BHK tk'ts 13 (transient, FuGENE 6), membranes
# T1 sequence (P32214 25-479 isoform P32214-2 limits assumed): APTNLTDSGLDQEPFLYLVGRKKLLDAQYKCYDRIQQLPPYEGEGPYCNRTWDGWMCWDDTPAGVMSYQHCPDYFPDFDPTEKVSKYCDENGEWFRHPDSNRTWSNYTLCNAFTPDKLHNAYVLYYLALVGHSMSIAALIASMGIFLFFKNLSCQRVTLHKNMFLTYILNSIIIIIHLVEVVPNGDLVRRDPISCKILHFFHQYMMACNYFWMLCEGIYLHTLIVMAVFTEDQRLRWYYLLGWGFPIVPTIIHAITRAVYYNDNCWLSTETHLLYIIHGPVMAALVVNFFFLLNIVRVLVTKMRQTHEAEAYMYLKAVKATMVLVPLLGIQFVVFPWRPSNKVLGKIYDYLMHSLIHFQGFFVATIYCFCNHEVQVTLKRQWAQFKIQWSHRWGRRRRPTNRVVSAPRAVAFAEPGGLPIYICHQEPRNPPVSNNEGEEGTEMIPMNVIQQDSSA
# Procedure, shortened: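 Membranes were prepared from BHK tk′ts 13 cells transiently transfected with rat calcitonin receptor. Cells were grown in DMEM with 10% FBS and harvested approximately 48 hours after transfection.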
# [2] = bistrispropane buffer, pH 6.5, read-out: Solubility pH 6.5 Concentration
# [3] = bistrispropane buffer, pH 7.5, read-out: Solubility pH 7.5 Concentration
# [4] = bistrispropane buffer, pH 6.0, read-out: Solubility pH 6.0 Concentration
# [5] = bistrispropane buffer, pH 7.0, read-out: Solubility pH 7.0 Concentration
# [6] = bistrispropane buffer, pH 8.0, read-out: Solubility pH 8.0 Concentration
# [7] = glycylglycine buffer, pH 3.0, read-out: Solubility pH 3.0 Concentration
# [8] = glycylglycine buffer, pH 4.0, read-out: Solubility pH 4.0 Concentration
# [9] = glycylglycine buffer, pH 5.0, read-out: Solubility pH 5.0 Concentration
SMILES,"solubility at 18 h [1, 2] [µM]","solubility at 18 h [1, 3] [µM]","solubility at 18 h [1, 4] [µM]","solubility at 18 h [1, 5] [µM]","solubility at 18 h [1, 6] [µM]","solubility at 18 h [1, 7] [µM]","solubility at 18 h [1, 8] [µM]","solubility at 18 h [1, 9] [µM]",IC50 (rat calcitonin receptor) [nM]
CC[C@H](C)[C@H](NC(=O)[C@H](C)NC(=O)CNC(=O)[C@H](Cc1ccccc1)NC(=O)[C@H](CC(N)=O)NC(=O)[C@@H]1CCCN1C(=O)[C@H](CO)NC(=O)[C@H](CO)NC(=O)[C@H](Cc1c[nH]cn1)NC(=O)[C@H](CCCNC(=N)N)NC(=O)[C@H](CC(C)C)NC(=O)[C@H](Cc1ccccc1)NC(=O)[C@H](CCC(=O)O)NC(=O)[C@H](C)NC(=O)[C@H](CC(C)C)NC(=O)[C@H](CCCNC(=N)N)NC(=O)[C@H](CCC(N)=O)NC(=O)[C@@H](NC(=O)[C@H](C)NC(=O)[C@@H]1CSSC[C@H](NC(=O)[C@H](CCCCN)NC(=O)CC[C@H](NC(=O)CCCCCCCCCCCCCCCCCCC(=O)O)C(=O)O)C(=O)N[C@@H](CC(N)=O)C(=O)N[C@@H]([C@@H](C)O)C(=O)N[C@@H](C)C(=O)N[C@@H]([C@@H](C)O)C(=O)N1)[C@@H](C)O)C(=O)N1CCC[C@H]1C(=O)N[C@@H](CO)C(=O)N[C@@H](CO)C(=O)N[C@H](C(=O)N[C@@H](CC(N)=O)C(=O)N[C@H](C(=O)NCC(=O)N[C@@H](CO)C(=O)N[C@@H](CCCNC(=N)N)C(=O)N[C@H](C(=O)N[C@@H](Cc1ccc(O)cc1)C(N)=O)[C@@H](C)O)C(C)C)[C@@H](C)O [Example 16] ({C20 diacid-γGlu}-KCNTATCATQRLAEFLRHSSPNFGAIPSSTNVGSRTY-NH2; disulfide 2-7),≥ 200,≥ 200,≥ 200,≥ 200,≥ 200,≥ 200,≥ 200,≥ 200,55.2
CC[C@H](C)[C@H](NC(=O)[C@H](C)NC(=O)CNC(=O)[C@H](Cc1ccccc1)NC(=O)[C@H](CC(N)=O)NC(=O)[C@@H]1CCCN1C(=O)[C@H](CO)NC(=O)[C@H](CO)NC(=O)[C@H](Cc1c[nH]cn1)NC(=O)[C@H](CCCNC(=N)N)NC(=O)[C@H](CC(C)C)NC(=O)[C@H](Cc1ccccc1)NC(=O)[C@H](CCC(=O)O)NC(=O)[C@H](C)NC(=O)[C@H](CC(C)C)NC(=O)[C@H](CCCNC(=N)N)NC(=O)[C@H](CCC(N)=O)NC(=O)[C@@H](NC(=O)[C@H](C)NC(=O)[C@@H]1CSSC[C@H](NC(=O)[C@H](CCCCN)NC(=O)CC[C@H](NC(=O)CCCCCCCCCCCCCCCCCCC(=O)O)C(=O)O)C(=O)N[C@@H](CC(N)=O)C(=O)N[C@@H]([C@@H](C)O)C(=O)N[C@@H](C)C(=O)N[C@@H]([C@@H](C)O)C(=O)N1)[C@@H](C)O)C(=O)N1CCC[C@H]1C(=O)N[C@@H](CO)C(=O)N[C@@H](CO)C(=O)N[C@H](C(=O)N[C@@H](CC(N)=O)C(=O)N[C@H](C(=O)NCC(=O)N[C@@H](Cc1c[nH]cn1)C(=O)N[C@@H](CC(N)=O)C(=O)N[C@H](C(=O)N[C@@H](Cc1ccc(O)cc1)C(N)=O)[C@@H](C)O)C(C)C)[C@@H](C)O [Example 17] ({C20 diacid-γGlu}-KCNTATCATQRLAEFLRHSSPNFGAIPSSTNVGHNTY-NH2; disulfide 2-7 (inferred)),≥ 200,159,≥ 200,≥ 200,154,≥ 200,≥ 200,≥ 200,97.2
CC[C@H](C)[C@H](NC(=O)[C@H](C)NC(=O)CNC(=O)[C@H](Cc1ccccc1)NC(=O)[C@H](CC(N)=O)NC(=O)[C@@H]1CCCN1C(=O)[C@H](CO)NC(=O)[C@H](CO)NC(=O)[C@H](Cc1c[nH]cn1)NC(=O)[C@H](CCCNC(=N)N)NC(=O)[C@H](CC(C)C)NC(=O)[C@H](Cc1ccccc1)NC(=O)[C@H](CCC(=O)O)NC(=O)[C@H](C)NC(=O)[C@H](CC(C)C)NC(=O)[C@H](CCCNC(=N)N)NC(=O)[C@H](CCC(N)=O)NC(=O)[C@@H](NC(=O)[C@H](C)NC(=O)[C@@H]1CSSC[C@H](NC(=O)[C@H](CCCCN)NC(=O)CC[C@H](NC(=O)CCCCCCCCCCCCCCCCCCC(=O)O)C(=O)O)C(=O)N[C@@H](CC(N)=O)C(=O)N[C@@H]([C@@H](C)O)C(=O)N[C@@H](C)C(=O)N[C@@H]([C@@H](C)O)C(=O)N1)[C@@H](C)O)C(=O)N1CCC[C@H]1C(=O)N[C@@H](CO)C(=O)N[C@@H](CO)C(=O)N[C@H](C(=O)N[C@@H](CC(N)=O)C(=O)N[C@H](C(=O)NCC(=O)N[C@@H](CO)C(=O)N[C@@H](Cc1c[nH]cn1)C(=O)N[C@H](C(=O)N[C@@H](Cc1ccc(O)cc1)C(N)=O)[C@@H](C)O)C(C)C)[C@@H](C)O [Example 18] ({C20 diacid-γGlu}-KCNTATCATQRLAEFLRHSSPNFGAIPSSTNVGSHTY-NH2; disulfide 2-7),≥ 200,122,≥ 200,177,111,≥ 200,≥ 200,≥ 200,13
CC[C@H](C)[C@H](NC(=O)[C@H](C)NC(=O)CNC(=O)[C@H](Cc1ccccc1)NC(=O)[C@H](CC(N)=O)NC(=O)[C@@H]1CCCN1C(=O)[C@H](CO)NC(=O)[C@H](CO)NC(=O)[C@H](Cc1c[nH]cn1)NC(=O)[C@H](CCCNC(=N)N)NC(=O)[C@H](CC(C)C)NC(=O)[C@H](Cc1ccccc1)NC(=O)[C@H](CCC(=O)O)NC(=O)[C@H](C)NC(=O)[C@H](CC(C)C)NC(=O)[C@H](CCCNC(=N)N)NC(=O)[C@H](CCC(N)=O)NC(=O)[C@@H](NC(=O)[C@H](C)NC(=O)[C@@H]1CSSC[C@H](NC(=O)[C@H](CCCCN)NC(=O)COCCOCCNC(=O)COCCOCCNC(=O)CC[C@H](NC(=O)CCCCCCCCCCCCCCCCCCC(=O)O)C(=O)O)C(=O)N[C@@H](CC(N)=O)C(=O)N[C@@H]([C@@H](C)O)C(=O)N[C@@H](C)C(=O)N[C@@H]([C@@H](C)O)C(=O)N1)[C@@H](C)O)C(=O)N1CCC[C@H]1C(=O)N[C@@H](CO)C(=O)N[C@@H](CO)C(=O)N[C@H](C(=O)N[C@@H](CC(N)=O)C(=O)N[C@H](C(=O)NCC(=O)N[C@@H](CO)C(=O)N[C@@H](CC(N)=O)C(=O)N[C@H](C(=O)N[C@@H](Cc1ccc(O)cc1)C(N)=O)[C@@H](C)O)C(C)C)[C@@H](C)O [Example 19],≥ 200,≥ 200,≥ 200,≥ 200,≥ 200,≥ 200,≥ 200,≥ 200,95.6
